In patent US10537558B2 (Bantam Pharmaceutical, LLC, priority 2015, dated 2020):

Tested on: BJAB cells
Assay: BJAB cell proliferation (Cell Titer Glo)
Assay type: cell-based
Conditions: Homo sapiens, read-out: EC50
Outline: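 BJAB cells exposed to serially diluted compounds (0.1% DMSO final) for about 72 h at 37 °C. Proliferation read by Cell Titer Glo luminescence as percent of untreated controls; EC50 from non-linear regression of dose-response data.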

Which EC50 does the source give for `Cc1nn(-c2nc(-c3ccc(Cl)c(Cl)c3)c(SC(C)C)s2)c(C(=O)O)c1-c1cccc(Cl)c1` [Compound 112, 4-(3-chlorophenyl)-1-(4-(3,4-dichlorophenyl)-5-(isopropylthio)thiazol-2-yl)-3-methyl-1H-pyrazole-5-carboxylic Acid] here?
The EC50 was 1 to 5 µM.

`Cc1nn(-c2nc(-c3ccc(Cl)c(Cl)c3)c(SC(C)C)s2)c(C(=O)O)c1-c1ccc(Cl)cc1` [Compound 113, 4-(4-chlorophenyl)-1-(4-(3,4-dichlorophenyl)-5-(isopropylthio)thiazol-2-yl)-3-methyl-1H-pyrazole-5-carboxylic acid] was tested. Which EC50 did it give?
The EC50 was 10 to 25 µM.

With `COc1ccccc1-c1c(C)nn(-c2nc(-c3ccc(Cl)c(Cl)c3)c(SC(C)C)s2)c1C(=O)O` [Compound 114, 1-(4-(3,4-dichlorophenyl)-5-(isopropylthio)thiazol-2-yl)-4-(2-methoxyphenyl)-3-methyl-1H-pyrazole-5-carboxylic acid] as the molecule, how does the EC50 read?
The EC50 was 10 to 25 µM.

Which EC50 does the source give for `COc1cccc(-c2c(C)nn(-c3nc(-c4ccc(Cl)c(Cl)c4)c(SC(C)C)s3)c2C(=O)O)c1` [Compound 115, 1-(4-(3,4-dichlorophenyl)-5-(isopropylthio)thiazol-2-yl)-4-(3-methoxyphenyl)-3-methyl-1H-pyrazole-5-carboxylic Acid] here?
Its EC50 is 1 to 5 µM.

`COc1ccc(-c2c(C)nn(-c3nc(-c4ccc(Cl)c(Cl)c4)c(SC(C)C)s3)c2C(=O)O)cc1` [Compound 116, 1-(4-(3,4-dichlorophenyl)-5-(isopropylthio)thiazol-2-yl)-4-(4-methoxyphenyl)-3-methyl-1H-pyrazole-5-carboxylic acid] was tested. Which EC50 did it give?
Its EC50 is 10 to 25 µM.

For `Cc1ccccc1-c1c(C)nn(-c2nc(-c3ccc(Cl)c(Cl)c3)c(SC(C)C)s2)c1C(=O)O` [Compound 117, 1-(4-(3,4-dichlorophenyl)-5-(isopropylthio)thiazol-2-yl)-3-methyl-4-o-tolyl-1H-pyrazole-5-carboxylic acid], which EC50 is on record?
The EC50 was 5 to 10 µM.

How did the EC50 turn out when `Cc1cccc(-c2c(C)nn(-c3nc(-c4ccc(Cl)c(Cl)c4)c(SC(C)C)s3)c2C(=O)O)c1` [Compound 118, 1-(4-(3,4-dichlorophenyl)-5-(isopropylthio)thiazol-2-yl)-3-methyl-4-m-tolyl-1H-pyrazole-5-carboxylic Acid] was run?
The EC50 was 1 to 5 µM.

For `Cc1ccc(-c2c(C)nn(-c3nc(-c4ccc(Cl)c(Cl)c4)c(SC(C)C)s3)c2C(=O)O)cc1` [Compound 119, 1-(4-(3,4-dichlorophenyl)-5-(isopropylthio)thiazol-2-yl)-3-methyl-4-p-tolyl-1H-pyrazole-5-carboxylic acid], which EC50 is on record?
The EC50 was 10 to 25 µM.

`CC(=O)Nc1ccc(-c2c(C)nn(-c3nc(-c4ccc(Cl)c(Cl)c4)c(SC(C)C)s3)c2C(=O)O)cc1` [Compound 120, 4-(4-acetamidophenyl)-1-(4-(3,4-dichlorophenyl)-5-(isopropylthio)thiazol-2-yl)-3-methyl-1H-pyrazole-5-carboxylic acid] was tested. Which EC50 did it give?
The EC50 was over 50 µM.

Which EC50 does the source give for `Cc1nn(-c2nc(-c3ccc(Cl)c(Cl)c3)c(SC(C)C)s2)c(C(=O)O)c1Cc1ccccc1NS(C)(=O)=O` [Compound 121, 1-(4-(3,4-dichlorophenyl)-5-(isopropylthio)thiazol-2-yl)-3-methyl-4-(2-(methylsulfonamido)benzyl)-1H-pyrazole-5-carboxylic acid] here?
The EC50 was over 50 µM.

How did the EC50 turn out when `Cc1nn(-c2nc(-c3ccc(Cl)c(Cl)c3)c(SC(C)C)s2)c(C(=O)O)c1Cc1ccccc1NS(=O)(=O)N(C)C` [Compound 122, 1-(4-(3,4-dichlorophenyl)-5-(isopropylthio)thiazol-2-yl)-4-(2-(N,N-dimethylsulfamoylamino)benzyl)-3-methyl-1H-pyrazole-5-carboxylic acid] was run?
Its EC50 is 10 to 25 µM.

How did the EC50 turn out when `Cc1nn(-c2nc(-c3ccc(Cl)c(Cl)c3)c(SC(C)C)s2)c(C(=O)O)c1-c1ccc(N)cc1` [Compound 123, 4-(4-aminophenyl)-1-(4-(3,4-dichlorophenyl)-5-(isopropylthio)thiazol-2-yl)-3-methyl-1H-pyrazole-5-carboxylic acid] was run?
The EC50 was 25 to 50 µM.

How did the EC50 turn out when `Cc1nn(-c2nc(-c3ccc(Cl)c(Cl)c3)c(SC(C)C)s2)c(C(=O)O)c1-c1ccc(NS(C)(=O)=O)cc1` [Compound 124, 1-(4-(3,4-dichlorophenyl)-5-(isopropylthio)thiazol-2-yl)-3-methyl-4-(4-(methylsulfonamido)phenyl)-1H-pyrazole-5-carboxylic acid] was run?
The EC50 was over 50 µM.

Which EC50 does the source give for `Cc1nn(-c2nc(-c3ccc(Cl)c(Cl)c3)c(SC(C)C)s2)c(C(=O)O)c1-c1cccc(NS(C)(=O)=O)c1` [Compound 125, 1-(4-(3,4-dichlorophenyl)-5-(isopropylthio)thiazol-2-yl)-3-methyl-4-(3-(methylsulfonamido)phenyl)-1H-pyrazole-5-carboxylic acid] here?
Its EC50 is over 50 µM.

How did the EC50 turn out when `COCCn1cc(-c2c(C)nn(-c3nc(-c4ccc(Cl)c(Cl)c4)c(SC(C)C)s3)c2C(=O)O)cn1` [Compound 126, 2-(4-(3,4-dichlorophenyl)-5-(isopropylthio)thiazol-2-yl)-2′-(2-methoxyethyl)-5-methyl-4,4′-bi(2H-pyrazole)-3-carboxylic acid] was run?
Its EC50 is 10 to 25 µM.

With `Cc1nn(-c2nc(-c3ccc(Cl)c(Cl)c3)c(SC(C)C)s2)c(C(=O)O)c1-c1cccc2cc[nH]c12` [Compound 127, 1-(4-(3,4-dichlorophenyl)-5-(isopropylthio)thiazol-2-yl)-4-(1H-indol-7-yl)-3-methyl-1H-pyrazole-5-carboxylic acid] as the molecule, how does the EC50 read?
The EC50 was 5 to 10 µM.

With `Cc1nn(-c2nc(-c3ccc(Cl)c(Cl)c3)c(SC(C)C)s2)cc1-c1cccc2cc[nH]c12` [Compound 128, 2-(4-(1H-indol-7-yl)-3-methyl-1H-pyrazol-1-yl)-4-(3,4-dichlorophenyl)-5-(isopropylthio)thiazole] as the molecule, how does the EC50 read?
Its EC50 is 10 to 25 µM.

How did the EC50 turn out when `CCn1cc(-c2c(C)nn(-c3nc(-c4ccc(Cl)c(Cl)c4)c(SC(C)C)s3)c2C(=O)O)cn1` [Compound 129, 2-(4-(3,4-dichlorophenyl)-5-(isopropylthio)thiazol-2-yl)-2′-ethyl-5-methyl-4,4′-bi(2H-pyrazole)-3-carboxylic Acid] was run?
Its EC50 is 5 to 10 µM.

Which EC50 does the source give for `COCCNC(=O)c1c(-c2cccc(C)c2)c(C)nn1-c1nc(-c2ccc(Cl)c(Cl)c2)c(SC(C)C)s1` [Compound 130, 1-(4-(3,4-dichlorophenyl)-5-(isopropylthio)thiazol-2-yl)-N-(2-methoxyethyl)-3-methyl-4-m-tolyl-1H-pyrazole-5-carboxamide] here?
Its EC50 is over 50 µM.

`Cc1ccccc1-c1c(C)nn(-c2nc(-c3ccc(Cl)c(Cl)c3)c(SC(C)C)s2)c1C(=O)N1CCC(CN)CC1` [Compound 131, (4-(aminomethyl)piperidin-1-yl)(1-(4-(3,4-dichlorophenyl)-5-(isopropylthio)thiazol-2-yl)-3-methyl-4-o-tolyl-1H-pyrazol-5-yl)methanone] was tested. Which EC50 did it give?
Its EC50 is 1 to 5 µM.

For `COc1cncc(-c2c(C)nn(-c3nc(-c4ccc(Cl)c(Cl)c4)c(SC(C)C)s3)c2C(=O)O)c1` [Compound 132, 1-(4-(3,4-dichlorophenyl)-5-(isopropylthio)thiazol-2-yl)-4-(5-methoxypyridin-3-yl)-3-methyl-1H-pyrazole-5-carboxylic acid], which EC50 is on record?
Its EC50 is 10 to 25 µM.

Which EC50 does the source give for `Cc1nn(-c2nc(-c3ccc(Cl)c(Cl)c3)c(SC(C)C)s2)c(C(=O)O)c1-c1cnn(CC(C)C)c1` [Compound 133, 2-(4-(3,4-dichlorophenyl)-5-(isopropylthio)thiazol-2-yl)-2′-isobutyl-5-methyl-4,4′-bi(2H-pyrazole)-3-carboxylic acid] here?
The EC50 was 10 to 25 µM.

With `CNc1cc(-c2c(C)nn(-c3nc(-c4ccc(Cl)c(Cl)c4)c(SC(C)C)s3)c2C(=O)O)ccn1` [Compound 134, 1-(4-(3,4-dichlorophenyl)-5-(isopropylthio)thiazol-2-yl)-3-methyl-4-(2-(methylamino)pyridin-4-yl)-1H-pyrazole-5-carboxylic acid] as the molecule, how does the EC50 read?
Its EC50 is 10 to 25 µM.

`Cc1nn(-c2nc(-c3ccc(Cl)c(Cl)c3)c(SC(C)C)s2)c(C(=O)O)c1-c1cnn(C(=O)N(C)C)c1` [Compound 135, 1-(4-(3,4-dichlorophenyl)-5-(isopropylthio)thiazol-2-yl)-1′-(dimethylcarbamoyl)-3-methyl-1H,1′H-[4,4′-bipyrazole]-5-carboxylic acid] was tested. Which EC50 did it give?
Its EC50 is 25 to 50 µM.

How did the EC50 turn out when `Cc1nn(-c2nc(-c3ccc(Cl)c(Cl)c3)c(SC(C)C)s2)c(C(=O)N2CCC(CN)CC2)c1-c1cc(C(F)(F)F)cc(C(F)(F)F)c1` [Compound 136, (4-(aminomethyl)piperidin-1-yl)(4-(3,5-bis(trifluoromethyl)phenyl)-1-(4-(3,4-dichlorophenyl)-5-(isopropylthio)thiazol-2-yl)-3-methyl-1H-pyrazol-5-yl)methanone] was run?
Its EC50 is 1 to 5 µM.

`Cc1nn(-c2nc(-c3ccc(Cl)c(Cl)c3)c(SC(C)C)s2)c(C(=O)N(C)CCN)c1-c1cc(C(F)(F)F)cc(C(F)(F)F)c1` [Compound 137, N-(2-aminoethyl)-4-(3,5-bis(trifluoromethyl)phenyl)-1-(4-(3,4-dichlorophenyl)-5-(isopropylthio)thiazol-2-yl)-N,3-dimethyl-1H-pyrazole-5-carboxamide] was tested. Which EC50 did it give?
Its EC50 is 1 to 5 µM.

How did the EC50 turn out when `Cc1nn(-c2nc(-c3ccc(Cl)c(Cl)c3)c(SC(C)C)s2)c(C(=O)N2CC(N)C2)c1-c1cc(C(F)(F)F)cc(C(F)(F)F)c1` [Compound 138, (3-aminoazetidin-1-yl)(4-(3,5-bis(trifluoromethyl)phenyl)-1-(4-(3,4-dichlorophenyl)-5-(isopropylthio)thiazol-2-yl)-3-methyl-1H-pyrazol-5-yl)methanone] was run?
Its EC50 is 10 to 25 µM.

How did the EC50 turn out when `Cc1nn(-c2nc(-c3ccc(Cl)c(Cl)c3)c(SC(C)C)s2)c(C(=O)N2CCOCC2)c1-c1cc(C(F)(F)F)cc(C(F)(F)F)c1` [Compound 139, (4-(3,5-bis(trifluoromethyl)phenyl)-1-(4-(3,4-dichlorophenyl)-5-(isopropylthio)thiazol-2-yl)-3-methyl-1H-pyrazol-5-yl)(morpholino)methanone] was run?
The EC50 was 10 to 25 µM.

With `Cc1nn(-c2nc(-c3ccc(Cl)c(Cl)c3)c(SC(C)C)s2)c(C(=O)N(C)C)c1-c1cc(C(F)(F)F)cc(C(F)(F)F)c1` [Compound 140, 4-(3,5-bis(trifluoromethyl)phenyl)-1-(4-(3,4-dichlorophenyl)-5-(isopropylthio)thiazol-2-yl)-N,N,3-trimethyl-1H-pyrazole-5-carboxamide] as the molecule, how does the EC50 read?
The EC50 was over 40 µM.
